According to ChEMBL document CHEMBL4325896, “The potential role of tubeimosides in cancer prevention and treatment” (Eur J Med Chem, 2019):
In brackets after ≈: the same amount, converted by molar mass.

Experiments:
HepG2 [1] = assay: Antiproliferative activity against human HepG2 cells; assay type: functional, cell-based
[2] = Toxicity in ip dosed ICR mouse; assay type: organism-based; settings: in vivo
NCI-H460 [3] = assay: Antiproliferative activity against human NCI-H460 cells after 24 hrs by WST-1 assay; assay type: functional, cell-based; settings: NCI-H460, 24 h
[4] = Antiproliferative activity against mouse eEND.2 cells after 24 hrs by WST-1 assay; assay type: cell-based
[5] = Elimination half life in Sprague-Dawley rat at 5 mg/kg, iv by LC-MS analysis; assay type: ADME, organism-based; settings: in vivo
[6] = Volume of distribution at terminal phase in Sprague-Dawley rat at 5 mg/kg, iv by LC-MS analysis; assay type: ADME, organism-based; settings: in vivo
[7] = Oral bioavailability in Sprague-Dawley rat at 50 mg/kg by LC-MS analysis; assay type: ADME, organism-based; settings: in vivo
[8] = Cmax in Sprague-Dawley rat at 50 mg/kg, po by LC-MS analysis; assay type: ADME, organism-based; design: dose 50 mg/kg, route oral; settings: in vivo
[9] = Tmax in Sprague-Dawley rat at 50 mg/kg, po by LC-MS analysis; assay type: ADME, organism-based; settings: in vivo
[10] = Cmax in Sprague-Dawley rat at 50 mg/kg, po by HPLC-DAD-IT-TOF-MS analysis; assay type: ADME, organism-based; design: dose 50 mg/kg, route oral; settings: in vivo
[11] = Tmax in Sprague-Dawley rat at 50 mg/kg, po by HPLC-DAD-IT-TOF-MS analysis; assay type: ADME, organism-based; settings: in vivo
[12] = Half life in Sprague-Dawley rat at 50 mg/kg, po by HPLC-DAD-IT-TOF-MS analysis; assay type: ADME, organism-based; settings: in vivo
[13] = AUC (0 to 24 hrs) in Sprague-Dawley rat at 50 mg/kg, po by HPLC-DAD-IT-TOF-MS analysis; assay type: ADME, organism-based; design: dose 50 mg/kg, time < 24 hr, route oral; settings: in vivo
[14] = AUC (0 to infinity) in Sprague-Dawley rat at 50 mg/kg, po by HPLC-DAD-IT-TOF-MS analysis; assay type: ADME, organism-based; design: dose 50 mg/kg, time infinity, route oral; settings: in vivo
[15] = MRT (0 to 24 hrs) in Sprague-Dawley rat at 50 mg/kg, po by HPLC-DAD-IT-TOF-MS analysis; assay type: ADME, organism-based; settings: in vivo
[16] = MRT (0 to infinity) in Sprague-Dawley rat at 50 mg/kg, po by HPLC-DAD-IT-TOF-MS analysis; assay type: ADME, organism-based; settings: in vivo
[17] = Elimination half life in ICR mouse at 20 mg/kg, po by UPLC-MS/MS analysis; assay type: ADME, organism-based; settings: in vivo, read-out: beta t1/2 (converted)
[18] = Elimination half life in ICR mouse at 5 mg/kg, iv by UPLC-MS/MS analysis; assay type: ADME, organism-based; settings: in vivo, read-out: beta t1/2 (converted)
[19] = Oral bioavailability in ICR mouse at 20 mg/kg by UPLC-MS/MS analysis; assay type: ADME, organism-based; settings: in vivo
DU-145 = assay: Antiproliferative activity against human DU145 cells after 24 hrs by MTT assay; assay type: functional, cell-based; settings: DU-145, 24 h
PC-3 = assay: Antiproliferative activity against human PC3 cells after 24 hrs by MTT assay; assay type: functional, cell-based; settings: PC-3, 24 h
HeLa [20] = assay: Cytotoxicity against human HeLa cells after 24 hrs by MTT assay; assay type: functional, cell-based
NCI-H460 [21] = assay: Antiproliferative activity against human NCI-H460 cells after 9 hrs by MTT assay; assay type: functional, cell-based; settings: NCI-H460, 9 h
A549 = assay: Antiproliferative activity against human A549 cells after 72 hrs by MTS assay; assay type: functional, cell-based; settings: A549, 72 h
PC-9 = assay: Antiproliferative activity against human PC9 cells after 72 hrs by MTS assay; assay type: functional, cell-based; settings: PC-9, 72 h
[22] = Antiproliferative activity against human PGCL3 cells after 24 hrs by MTT assay; assay type: functional, cell-based
[23] = Antiproliferative activity against human PGCL3 cells after 48 hrs by MTT assay; assay type: functional, cell-based
[24] = Antiproliferative activity against human PGCL3 cells after 72 hrs by MTT assay; assay type: functional, cell-based
HeLa [25] = assay: Antiproliferative activity against human HeLa cells after 24 hrs by MTT assay; assay type: functional, cell-based
HeLa [26] = assay: Antiproliferative activity against human HeLa cells after 48 hrs by MTT assay; assay type: functional, cell-based
HeLa [27] = assay: Antiproliferative activity against human HeLa cells after 72 hrs by MTT assay; assay type: functional, cell-based
HepG2 [28] = assay: Antiproliferative activity against human HepG2 cells after 24 hrs by MTT assay; assay type: functional, cell-based; settings: HepG2, 24 h
SK-OV-3 = assay: Antiproliferative activity against human SKOV3 cells after 24 hrs by MTT assay; assay type: functional, cell-based; settings: SK-OV-3, 24 h
T-24 = assay: Antiproliferative activity against human T24 cells after 24 hrs by MTT assay; assay type: functional, cell-based; settings: T-24, 24 h
ECa-109 cell line [29] = assay: Antiproliferative activity against human EC109 cells after 24 hrs by MTT assay; assay type: functional, cell-based; settings: ECa-109, 24 h
ECa-109 cell line [30] = assay: Antiproliferative activity against human EC109 cells after 48 hrs by MTT assay; assay type: functional, cell-based; settings: ECa-109, 48 h
JEG-3 = assay: Antiproliferative activity against human JEG3 cells after 24 hrs by MTT assay; assay type: functional, cell-based; settings: JEG-3, 24 h
HUVEC [31] = assay: Antiproliferative activity against HUVEC after 24 hrs; assay type: functional, cell-based; settings: Homo sapiens
HUVEC [32] = assay: Antiproliferative activity against HUVEC after 48 hrs; assay type: functional, cell-based; settings: Homo sapiens
HUVEC [33] = assay: Antiproliferative activity against HUVEC after 72 hrs; assay type: functional, cell-based; settings: Homo sapiens
NCI-H1299 = assay: Antiproliferative activity against human NCI-H1299 cells after 48 hrs by CCK-8 assay; assay type: functional, cell-based; settings: NCI-H1299, 48 h
[34] = Antiproliferative activity against human A2780DDP cells after 12 hrs; assay type: functional, cell-based
[35] = Antiproliferative activity against human A2780DDP cells after 24 hrs; assay type: functional, cell-based
[36] = Antiproliferative activity against human A2780DDP cells after 48 hrs; assay type: functional, cell-based
HUVEC [37] = assay: Antimigratory activity against HUVEC at 20 umol/L after 24 hrs relative to control; assay type: functional, Homo sapiens

## C[C@@H]1O[C@H]2O[C@H]3[C@@H](OC[C@H](O)[C@@H]3O)OC(=O)[C@]34CCC(C)(C)C[C@H]3C3=CC[C@@H]5[C@@]6(C)C[C@H](O)[C@H](O[C@@H]7O[C@H](CO)[C@@H](O)[C@H](O)[C@H]7O[C@@H]7OC[C@H](OC(=O)C[C@](C)(O)CC(=O)O[C@@H]1[C@@H](O[C@@H]1OC[C@@H](O)[C@H](O)[C@H]1O)[C@H]2O)[C@H](O)[C@H]7O)[C@@](C)(CO)[C@@H]6CC[C@@]5(C)[C@]3(C)C[C@H]4O
HepG2 [1]
  IC50: 4.05 µg/mL (≈ 3.03 µM)
[2]
  LD50: 21 mg/kg

## C[C@@H]1O[C@H]2O[C@H]3[C@@H](OC[C@H](O)[C@@H]3O)OC(=O)[C@]34CCC(C)(C)C[C@H]3C3=CC[C@@H]5[C@@]6(C)C[C@H](O)[C@H](O[C@@H]7O[C@H](CO)[C@@H](O)[C@H](O)[C@H]7O[C@@H]7OC[C@H](OC(=O)C[C@](C)(O)CC(=O)O[C@@H]1[C@@H](O[C@@H]1OC[C@@H](O)[C@H](O)[C@H]1O)[C@H]2O)[C@H](O)[C@H]7O)[C@@](C)(CO)[C@@H]6CC[C@@]5(C)[C@]3(C)CC4
NCI-H460 [3]
  IC50: 23.3 µM
[4]
  IC50: 12 µM
[5]
  beta t1/2: 6.7 h
[6]
  Vbeta: 0.106 L/kg
[7]
  bioavailability: 0.23%
[8]
  Cmax: 675 ng/mL
[9]
  Tmax: 2.75 h
[10]
  Cmax: 1342 ng/mL
[11]
  Tmax: 2.85 h
[12]
  t1/2: 4.6 h
[13]
  AUC(0-t) at 24 h: 8800 ng·h/mL
[14]
  AUC: 9900 ng·h/mL
[15]
  MRT last: 7.02 h
[16]
  MRT inf: 9.16 h
[17]
  half-life: 2.3 h
[18]
  half-life: 6.8 h
[19]
  bioavailability: 1%
DU-145
  IC50: 10 µM
PC-3
  IC50: 20 µM
HeLa [20]
  IC50: 25 µM
NCI-H460 [21]
  IC50: 20 µM
A549
  IC50: 12.3 µM
PC-9
  IC50: 10.2 µM
[22]
  IC50: 15.7 µM
[23]
  IC50: 14.2 µM
[24]
  IC50: 13.3 µM
HeLa [25]
  IC50: 34.8 µM
HeLa [26]
  IC50: 27.1 µM
HeLa [27]
  IC50: 17.1 µM
HepG2 [28]
  IC50: 15.5 to 20 µM
SK-OV-3
  IC50: 16 µM
T-24
  IC50: 20 µM
ECa-109 cell line [29]
  IC50: 45 µM
ECa-109 cell line [30]
  IC50: 35 µM
JEG-3
  IC50: 8.5 µM
HUVEC [31]
  IC50: 24.2 µM
HUVEC [32]
  IC50: 21.4 µM
HUVEC [33]
  IC50: 17.9 µM
NCI-H1299
  IC50: 10 µM
[34]
  IC50: 3 µM
[35]
  IC50: 6 µM
[36]
  IC50: 12 µM
HUVEC [37]
  Activity: 58.4%
[2]
  LD50: 18.7 mg/kg

## C[C@@H]1O[C@H]2O[C@H]3[C@@H](OC[C@H](O)[C@@H]3O)OC(=O)[C@]34CCC(C)(C)C[C@H]3C3=CC[C@@H]5[C@@]6(C)C[C@H](O)[C@H](O[C@@H]7O[C@H](CO)[C@@H](O)[C@H](O)[C@H]7O[C@@H]7O[C@H](COC(=O)C[C@](C)(O)CC(=O)O[C@@H]1[C@@H](O[C@@H]1OC[C@@H](O)[C@H](O)[C@H]1O)[C@H]2O)[C@@H](O)[C@H](O)[C@H]7O)[C@@](C)(CO)[C@@H]6CC[C@@]5(C)[C@]3(C)C[C@H]4O
[2]
  LD50: 15 mg/kg
